From US20170248586A1, “Marker For Depression, Assay Method, Method For Determining Depression, Screening Method For Antidepressants, And Kit” (MEIJO UNIVERSITY, priority 2013, published 2017)

Legend:
wild-type C57BL/6J mouse = experiment: Forced swim test in control mice; assay type: in vivo; settings: immobility measured for 10 minutes, 0 mg/kg group 203 seconds
Method: (§1) Experimental Equipment and Procedure: A water bath (diameter 15 cm×height 20 cm) filled with water (water temperature: about 22° C., depth: 13 cm) was used as experimental equipment. A wild-type C57BL/6J mouse as a control or a model mouse was placed in the water bath, and just after that, immobility time was measured by Scanet MV-10 AQ (Brain Science Idea, Osaka, Japan) every 1 minute for 10 minutes.
(§2) Thirty minutes before the test, 10 mg/kg of desipramine (Sigma, St. Louis, Mo.) or 3 mg/kg of atomoxetine (LKT Laboratories, Inc, MN) dissolved in normal saline was intraperitoneally administered. As a control, the solvent was intraperitoneally administered.
(§3) In Examples, MAGE-D1 gene-deficient mice were used as animal models. The forced swim test was used for evaluating depression-like behavior. In the forced swim test, a mouse is placed in a narrow cylinder filled with water so as to recognize the impossibility of escape therefrom, and the time that the mouse floats on water without moving is evaluated as decreased motivation. […] Each administration test was performed in triplicate, and therefore graphs in FIGS. 1A and 1B show average values.

[1] = system: MAGE-D1 gene-deficient mice; experiment: Forced swim test, evaluation of depression-like behavior in model mice; assay type: in vivo, mouse; settings: for average value of immobility time: immobility measured for 10 minutes, 0 mg/kg group 425 seconds; for depression-like behavior in model mice: FIG. 1A desipramine, FIG. 1B atomoxetine; for increase in immobility time of model mice in the forced swim test (result in words): desipramine 10 mg/kg or atomoxetine 3 mg/kg i.p., FIGS. 1A and 1B
Text: A targeting vector (Stratagene: pBlueScript) for homologous recombination between a MAGE-D1 gene (Gene bank: NM_019791.2) exon and a drug (G418)-resistant gene (GenBank: U00004.1) was electroporated into embryo stem (ES) cells derived from 129Svj mice (supplied from National Center for Geriatrics and Gerontology), and drug-resistant colonies were selected. A homologous recombinant was identified from the selected drug-resistant colonies by Southern blotting. The identified target homologous recombinant ES cell clone was injected into C57BL/6J mouse blastocyst-stage embryos to generate chimeric mice. The chimeric mice were mated with wild-type C57BL/6J mice to generate F1 heterozygous MAGE-D1 gene-deficient mice. The heterozygous MAGE-D1 gene-deficient mice were mated with wild-type C57BL/6J mice up to the F10 generation. The mice having a 99.9% C57BL/6J genetic background were used (When mating with a C57BL/6J mouse is performed once, about half of the genes of a newborn mouse are derived from the C57BL/6J mouse used for mating. That is, it is considered that when mating with a C57BL/6J mouse is performed n times, about [1−(½)^n+1]×100% of genes are derived from the C57BL/6J mouse.) The mice having such a genetic background were defined as MAGE-D1 gene-deficient mice (hereinafter, also referred to as model mice) and used in the following tests.
as §1, §2, §3

[2] = 3 mg/kg intraperitoneally 30 min before test
[3] = 10 mg/kg intraperitoneally 30 min before test

| Compound | average value of immobility time (wild-type C57BL/6J mouse; [2]) [s] | average value of immobility time [1, 2] [s] | depression-like behavior in model mice [1] | increase in immobility time of model mice in the forced swim test (result in words) [1] | average value of immobility time (wild-type C57BL/6J mouse; [3]) [s] | average value of immobility time [1, 3] [s] |
| --- | --- | --- | --- | --- | --- | --- |
| CNCC[C@@H](Oc1ccccc1C)c1ccccc1 [atomoxetine] | 205 | 283 | relieved | significantly reduced | – | – |
| CNCCCN1c2ccccc2CCc2ccccc21 [desipramine] | – | – | relieved | significantly reduced | 215 | 334 |
